Assay [1] in a line: Cardioprotective activity in Sprague-Dawley rat cardiomyocytes assessed as reduction of hypoxia/reoxygenation-induced mitochondrial calcium flux at 10 uM after 15 mins by Rhod 2AM staining relative to control. Type of assay: functional, cell-based. Details: scale not given: the % may be the effect or the level left. The settings on record: Cardiac muscle cell. Background: Calcium flux is commonly read through the fluorescence of an indicator in the cells.

Assay [2] is filed under the species Rattus norvegicus. Nature of the assay: Inhibition of calcium-induced cardiac mitochondria swelling in Sprague-Dawley rat at 1 uM after 10 mins. Type of assay: functional. The settings on record: Heart.
Assay [3] in a line: Cardioprotective activity in Sprague-Dawley rat cardiomyocytes assessed as reduction of hypoxia/reoxygenation-induced mitochondrial superoxide level at 10 uM after 15 mins by MitoSOX red staining relative to control. It is filed as functional, cell-based. Details: scale not given: the % may be the effect or the level left. Particulars: Cardiac muscle cell.
Assay [4] concerns Heart. Nature of the assay: Cardioprotective activity in Sprague-Dawley rat heart assessed as reduction of hypoxia/reoxygenation-induced infarct size at 10 uM treated 30 mins before reoxygenation by triphenyltetrazolium chloride staining (reference value: 42.10 +/- 7.36%). Details: scale not given: the % may be the effect or the level left. Type of assay: functional.
The nature of assay [5]: Cardioprotective activity in Sprague-Dawley rat cardiomyocytes assessed as prevention of hypoxia/reoxygenation-induced collapse of state 3 respiration in presence of 100 uM ADP. It is filed as functional, cell-based. The settings on record: Cardiac muscle cell.
Assay [6] in a line: Reduction of ouabain-induced mitochondrial calcium flux in Sprague-Dawley rat cardiomyocytes at 10 uM after 15 mins by Rhod 2AM staining relative to control. Details: scale not given: the % may be the effect or the level left. It is filed as functional, Cardiac muscle cell.

The structures appear in SMILES notation. Calls of active or inactive are those of the source. The calls are words filed in the database; no cut-off is given here.

With `Oc1ccc(-c2ccc3cc(O)ccc3c2)c(O)c1`, the Activity in assay [1] came out at 168%; in assay [3], 98.1%; in assay [4] it was 3.92%; in assay [6], 111.82%. Further, the inhibition entry in assay [2] was “Active”. Besides, the result in assay [5] was Active.

The values above are taken from ChEMBL document CHEMBL2401629, “HS-1793, a recently developed resveratrol analogue protects rat heart against hypoxia/reoxygenation injury via attenuating mitochondrial damage” (2013).
